According to ChEMBL document CHEMBL1201862, “PubChem BioAssay data set” (2004):
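Compound exposure: 48 hours, 5 concentrations, 96-well plates. GI50 is the concentration that inhibits growth by half.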 The source made the active and inactive calls. No stated cut-off is given here; in the data, active = GI50 up to about 1.1 µM and inactive = higher.

What was measured:
Test in all cases: NCI tumour cell line growth inhibition, 48 h
[1] = system: M14
[2] = system: NCI-H23
[3] = system: OVCAR-5
[4] = system: PC-3
[5] = system: COLO 205
[6] = system: HCT-15
[7] = system: HL-60
[8] = system: OVCAR-8
[9] = system: MDA-N
[10] = system: K562
[11] = system: SK-MEL-5
[12] = system: TK-10
[13] = system: HT-29
[14] = system: UACC-257
[15] = system: MOLT-4
[16] = system: UACC-62
[17] = system: SK-OV-3
[18] = system: SK-MEL-28
[19] = system: NCI-H226
[20] = system: Hs-578T

| SMILES | GI50 [1] | GI50 [2] | GI50 [3] | GI50 [4] | GI50 [5] | GI50 [6] [µM] | GI50 [7] | GI50 [8] | GI50 [9] | GI50 [10] | GI50 [11] | GI50 [12] | GI50 [13] | GI50 [14] | GI50 [15] | GI50 [16] | GI50 [17] | GI50 [18] | GI50 [19] | GI50 [20] |
| --- | --- | --- | --- | --- | --- | --- | --- | --- | --- | --- | --- | --- | --- | --- | --- | --- | --- | --- | --- | --- |
| CC(=O)Oc1ccc2c(c1)Oc1cc(C(C)=O)ccc1C21OC(=O)c2ccccc21 (stereo not drawn) | > 100 µM (inactive) | > 100 µM (inactive) | > 100 µM (inactive) | > 100 µM (inactive) | > 100 µM (inactive) | > 100 | 44.6 µM (inactive) | > 100 µM (inactive) | > 100 µM (inactive) | > 100 µM (inactive) | > 100 µM (inactive) | > 100 µM (inactive) | > 100 µM (inactive) | > 100 µM (inactive) | > 100 µM (inactive) | > 100 µM (inactive) | 94.8 µM (inactive) | > 100 µM (inactive) | – | – |
| OCC1C(O)C(O)[C@@H]2SCCN12 (stereo partly drawn) | > 100 µM (inactive) | > 100 µM (inactive) | > 100 µM (inactive) | > 100 µM (inactive) | > 100 µM (inactive) | > 100 | > 100 µM (inactive) | > 100 µM (inactive) | – | > 100 µM (inactive) | > 100 µM (inactive) | > 100 µM (inactive) | > 100 µM (inactive) | > 100 µM (inactive) | > 100 µM (inactive) | > 100 µM (inactive) | > 100 µM (inactive) | > 100 µM (inactive) | > 100 µM (inactive) | > 100 µM (inactive) |
| O=C1c2ccccc2C(=O)c2sc(Nc3ccc(Cl)c(Cl)c3)nc21 | 3.22 µM (inactive) | 2.31 µM (inactive) | 2.9 µM (inactive) | – | 8 µM (inactive) | 2.26 | 0.256 µM (active) | 3.7 µM (inactive) | – | 3.21 µM (inactive) | 2.32 µM (inactive) | 11.1 µM (inactive) | 19.7 µM (inactive) | 4.01 µM (inactive) | 1.02 µM (active) | 2.59 µM (inactive) | 18 µM (inactive) | 7.35 µM (inactive) | 1.48 µM (inactive) | 6.92 µM (inactive) |
| O=S(=O)(CCn1c(Sc2ccccc2)c(Sc2ccccc2)c2ccccc21)c1ccccc1 | > 100 µM (inactive) | > 100 µM (inactive) | > 100 µM (inactive) | > 100 µM (inactive) | > 100 µM (inactive) | > 100 | > 100 µM (inactive) | > 100 µM (inactive) | – | > 100 µM (inactive) | > 100 µM (inactive) | > 100 µM (inactive) | > 100 µM (inactive) | – | > 100 µM (inactive) | > 100 µM (inactive) | > 100 µM (inactive) | > 100 µM (inactive) | > 100 µM (inactive) | 40.5 µM (inactive) |
| CCN(C(=O)N[C@@H](Cc1ccccc1)C(=O)N[C@@H](CC(C)C)C(=O)NC)c1ccccc1 | > 100 µM (inactive) | > 100 µM (inactive) | > 100 µM (inactive) | > 100 µM (inactive) | > 100 µM (inactive) | > 100 | – | > 100 µM (inactive) | > 100 µM (inactive) | > 100 µM (inactive) | > 100 µM (inactive) | > 100 µM (inactive) | > 100 µM (inactive) | > 100 µM (inactive) | > 100 µM (inactive) | > 100 µM (inactive) | > 100 µM (inactive) | > 100 µM (inactive) | > 100 µM (inactive) | – |
| COc1ccc(NC(C)=O)cc1N1C(=O)/C(=C\c2cc(OC)c(OC)c(OC)c2)SC1c1ccccc1 (stereo not drawn) | 49.8 µM (inactive) | 72.8 µM (inactive) | > 100 µM (inactive) | 31.5 µM (inactive) | 39.6 µM (inactive) | 38.1 | 20.4 µM (inactive) | 48.1 µM (inactive) | 25.5 µM (inactive) | 30.9 µM (inactive) | 33.7 µM (inactive) | > 100 µM (inactive) | 47.1 µM (inactive) | 67.9 µM (inactive) | 19.3 µM (inactive) | 67.9 µM (inactive) | 82.2 µM (inactive) | 41.9 µM (inactive) | 50.9 µM (inactive) | – |
| c1ccc(CCN2CCCCCC2)nc1 | > 100 µM (inactive) | > 100 µM (inactive) | > 100 µM (inactive) | > 100 µM (inactive) | > 100 µM (inactive) | > 100 | – | > 100 µM (inactive) | – | > 100 µM (inactive) | > 100 µM (inactive) | > 100 µM (inactive) | > 100 µM (inactive) | – | > 100 µM (inactive) | > 100 µM (inactive) | > 100 µM (inactive) | > 100 µM (inactive) | > 100 µM (inactive) | > 100 µM (inactive) |
| OCC1CCCC1O (stereo not drawn) | > 100 µM (inactive) | > 100 µM (inactive) | > 100 µM (inactive) | > 100 µM (inactive) | > 100 µM (inactive) | > 100 | > 100 µM (inactive) | > 100 µM (inactive) | > 100 µM (inactive) | > 100 µM (inactive) | > 100 µM (inactive) | > 100 µM (inactive) | > 100 µM (inactive) | > 100 µM (inactive) | > 100 µM (inactive) | > 100 µM (inactive) | – | > 100 µM (inactive) | > 100 µM (inactive) | – |
| COc1cc(C2c3cc4c(cc3[C@@H](Nc3ccc(N)cc3)C3COC(=O)[C@H]23)OCO4)cc(OC)c1O (stereo partly drawn) | 1.31 µM (inactive) | 0.828 µM (active) | 4.08 µM (inactive) | 0.446 µM (active) | 7.85 µM (inactive) | 2.21 | – | 2.22 µM (inactive) | 3.93 µM (inactive) | 3.13 µM (inactive) | 0.918 µM (active) | 3.64 µM (inactive) | 3.64 µM (inactive) | 7.19 µM (inactive) | – | 1.15 µM (inactive) | 1.51 µM (inactive) | 6.76 µM (inactive) | 1.19 µM (inactive) | – |
| N=c1c2ccccc2nc2oc3ccccc3n12 | – | 35.2 µM (inactive) | 45.3 µM (inactive) | 85.1 µM (inactive) | > 100 µM (inactive) | > 100 | > 100 µM (inactive) | 37.5 µM (inactive) | – | > 100 µM (inactive) | 15.5 µM (inactive) | 28.4 µM (inactive) | > 100 µM (inactive) | 68.1 µM (inactive) | – | 28.6 µM (inactive) | 40.6 µM (inactive) | > 10 µM (inactive) | – | 20.6 µM (inactive) |
| C(=C\c1ccc2ccccc2c1Nc1ccccc1)/c1ccccc1 | 18.7 µM (inactive) | 19.9 µM (inactive) | > 100 µM (inactive) | – | > 71.3 µM (inactive) | > 100 | > 100 µM (inactive) | 22 µM (inactive) | – | 11.9 µM (inactive) | 78.3 µM (inactive) | 44.5 µM (inactive) | 29.6 µM (inactive) | > 75 µM (inactive) | 15.2 µM (inactive) | 51.9 µM (inactive) | 29.8 µM (inactive) | 46 µM (inactive) | 33.2 µM (inactive) | – |
| N=C(CSSCC(=N)NCC12CC3CC(CC(C3)C1)C2)NCC12CC3CC(CC(C3)C1)C2 | 18.2 µM (inactive) | 16 µM (inactive) | 17.7 µM (inactive) | 14.9 µM (inactive) | 19.2 µM (inactive) | 12.2 | 11 µM (inactive) | 18 µM (inactive) | – | 11.4 µM (inactive) | 20.2 µM (inactive) | 18.8 µM (inactive) | 13.6 µM (inactive) | 14.6 µM (inactive) | 3.1 µM (inactive) | 13.3 µM (inactive) | 17 µM (inactive) | 20.7 µM (inactive) | 20.9 µM (inactive) | 23.4 µM (inactive) |
| O=[N+]([O-])c1c(/C=N/c2ccccc2)oc(-c2ccc3c(c2)OCO3)c1-c1ccc2c(c1)OCO2 | > 100 µM (inactive) | > 100 µM (inactive) | > 100 µM (inactive) | – | > 100 µM (inactive) | > 100 | > 100 µM (inactive) | > 100 µM (inactive) | – | > 100 µM (inactive) | > 100 µM (inactive) | > 100 µM (inactive) | > 100 µM (inactive) | > 100 µM (inactive) | > 100 µM (inactive) | > 100 µM (inactive) | 44.9 µM (inactive) | > 100 µM (inactive) | 48.8 µM (inactive) | – |
| CC(C)C(=O)Nc1nc2[nH]cnc2c(=O)[nH]1 | > 100 µM (inactive) | > 100 µM (inactive) | > 100 µM (inactive) | – | > 100 µM (inactive) | > 100 | > 100 µM (inactive) | > 100 µM (inactive) | – | > 100 µM (inactive) | > 100 µM (inactive) | > 100 µM (inactive) | > 100 µM (inactive) | > 100 µM (inactive) | > 100 µM (inactive) | > 100 µM (inactive) | > 100 µM (inactive) | > 100 µM (inactive) | > 100 µM (inactive) | – |
| Cc1ccc(S(=O)(=O)NC(=O)Nc2cccc(S(N)(=O)=O)c2)cc1 | > 100 µM (inactive) | > 100 µM (inactive) | > 100 µM (inactive) | > 100 µM (inactive) | > 100 µM (inactive) | > 100 | > 100 µM (inactive) | – | – | > 100 µM (inactive) | > 100 µM (inactive) | > 100 µM (inactive) | > 100 µM (inactive) | – | > 100 µM (inactive) | > 100 µM (inactive) | > 100 µM (inactive) | > 100 µM (inactive) | > 100 µM (inactive) | > 100 µM (inactive) |
| CCOC(=O)C1=C(C)N(CC(C)C)C2(O)C(OC)CC(=O)C3C(=O)N(c4ccccc4)C(=O)C132 (stereo not drawn) | 38.3 µM (inactive) | 35 µM (inactive) | > 100 µM (inactive) | 34 µM (inactive) | 39 µM (inactive) | 23.3 | 25 µM (inactive) | 26.1 µM (inactive) | – | 31.9 µM (inactive) | 20.1 µM (inactive) | 77.1 µM (inactive) | 20.7 µM (inactive) | 37.4 µM (inactive) | 15.4 µM (inactive) | 19.3 µM (inactive) | – | 23.8 µM (inactive) | 26.1 µM (inactive) | 92.3 µM (inactive) |
